In patent publication US7138361B2, “Herbicidal heterocycles” (E. I. du Pont de Nemours and Company, priority 2000, dated 2006):

Key:
Type in all cases: in vivo
[1] = tested on: barnyardgrass (Echinochloa crus-galli); assay: Test A postemergence, sprayed to runoff; conditions: approx. eleven days
Procedure: (§1) Seeds of barnyardgrass (Echinochloa crus-galli), crabgrass (Digitaria spp.), giant foxtail (Setaria viridis), morning glory (Ipomoea spp.), redroot pigweed (Amaranthus retroflexus) and velvetleaf (Abutilon theophrasti) were planted into a sandy loam soil and treated preemergence by soil drench with test chemicals formulated in a non-phytotoxic solvent mixture which included a surfactant. At the same time, these crop and weed species were also treated postemergence sprayed to runoff with test chemicals formulated in the same manner. Plants ranged in height from two to eighteen cm and were in the one- to two-leaf stage for the postemergence treatment. Treated plants and untreated controls were maintained in a greenhouse for approximately eleven days, after which time all treated plants were compared to untreated controls and visually evaluated for injury. Plant response ratings, summarized in Table A, are based on a 0 to 10 scale where 0 is no effect and 10 is complete control. A dash (-) response means no test results.

[2] = tested on: crabgrass (Digitaria spp.); assay: Test A postemergence, sprayed to runoff; conditions: approx. eleven days
Procedure: as §1

[3] = tested on: giant foxtail (Setaria viridis); assay: Test A postemergence, sprayed to runoff; conditions: approx. eleven days
Procedure: as §1

[4] = tested on: redroot pigweed (Amaranthus retroflexus); assay: Test A postemergence, sprayed to runoff; conditions: approx. eleven days
Procedure: as §1

[5] = tested on: barnyardgrass (Echinochloa crus-galli); assay: Test A preemergence, soil drench; conditions: approx. eleven days
Procedure: as §1

[6] = tested on: crabgrass (Digitaria spp.); assay: Test A preemergence, soil drench; conditions: approx. eleven days
Procedure: as §1

[7] = tested on: giant foxtail (Setaria viridis); assay: Test A preemergence, soil drench; conditions: approx. eleven days
Procedure: as §1

[8] = tested on: morning glory (Ipomoea spp.); assay: Test A preemergence, soil drench; conditions: Morningglory, approx. eleven days
Procedure: as §1

[9] = tested on: redroot pigweed (Amaranthus retroflexus); assay: Test A preemergence, soil drench; conditions: approx. eleven days
Procedure: as §1

[10] = tested on: velvetleaf (Abutilon theophrasti); assay: Test A preemergence, soil drench; conditions: approx. eleven days
Procedure: as §1

| Compound | Plant response rating (visual injury vs untreated controls) ([1]; Rate 500 g/ha) | Plant response rating (visual injury vs untreated controls) ([1]; Rate 2000 g/ha) | Plant response rating (visual injury vs untreated controls) ([2]; Rate 500 g/ha) | Plant response rating (visual injury vs untreated controls) ([2]; Rate 2000 g/ha) | Plant response rating (visual injury vs untreated controls) ([3]; Rate 500 g/ha) | Plant response rating (visual injury vs untreated controls) ([3]; Rate 2000 g/ha) | Plant response rating (visual injury vs untreated controls) ([4]; Rate 500 g/ha) | Plant response rating (visual injury vs untreated controls) ([4]; Rate 2000 g/ha) | Plant response rating (visual injury vs untreated controls) ([5]; Rate 500 g/ha) | Plant response rating (visual injury vs untreated controls) ([5]; Rate 2000 g/ha) | Plant response rating (visual injury vs untreated controls) ([6]; Rate 500 g/ha) | Plant response rating (visual injury vs untreated controls) ([6]; Rate 2000 g/ha) | Plant response rating (visual injury vs untreated controls) ([7]; Rate 500 g/ha) | Plant response rating (visual injury vs untreated controls) ([7]; Rate 2000 g/ha) | Plant response rating (visual injury vs untreated controls) ([8]; Rate 500 g/ha) | Plant response rating (visual injury vs untreated controls) ([8]; Rate 2000 g/ha) | Plant response rating (visual injury vs untreated controls) ([9]; Rate 500 g/ha) | Plant response rating (visual injury vs untreated controls) ([9]; Rate 2000 g/ha) | Plant response rating (visual injury vs untreated controls) ([10]; Rate 500 g/ha) | Plant response rating (visual injury vs untreated controls) ([10]; Rate 2000 g/ha) |
| --- | --- | --- | --- | --- | --- | --- | --- | --- | --- | --- | --- | --- | --- | --- | --- | --- | --- | --- | --- | --- |
| O=C1C(n2cccn2)CCN1c1cccc(C(F)(F)F)c1 (stereo not shown) [Compound 15] | 10 | 10 | 10 | 10 | 10 | 10 | 0 | 0 | 10 | 10 | 80 | 100 | 50 | 100 | 0 | 0 | 30 | 100 | 30 | 100 |
| O=C1C(n2ccc(C3CC3)n2)SCN1c1cccc(C(F)(F)F)c1 (stereo not shown) [Compound 26] | 90 | 90 | 30 | 20 | 50 | 100 | 40 | 80 | 100 | 100 | 100 | 100 | 100 | 100 | 0 | 30 | 100 | 100 | 50 | 40 |
| Cc1ccn(C2CCN(c3cccc(C(F)(F)F)c3)C2=O)n1 (stereo not shown) [Compound 16] | 0 | 10 | 10 | 20 | 0 | 30 | 0 | 0 | 10 | 70 | 100 | 100 | 80 | 90 | 0 | 20 | 80 | 100 | 10 | 100 |
| CC1(C)CCc2cn(C3CCN(c4cccc(C(F)(F)F)c4)C3=O)nc21 (stereo not shown) [Compound 10] | 20 | 10 | 10 | 10 | 10 | 10 | 20 | 100 | 100 | 100 | 90 | 100 | 90 | 100 | 0 | 20 | 100 | 100 | 20 | 10 |
| O=C1C(n2ccc(C3CC3)n2)OCN1c1cccc(C(F)(F)F)c1 (stereo not shown) [Compound 28] | 60 | 60 | 20 | 40 | 80 | 90 | 20 | 80 | 100 | 100 | 90 | 100 | 100 | 100 | 0 | 0 | 100 | 100 | 10 | 10 |
| CCC(C)c1nn(C2CCN(c3cccc(C(F)(F)F)c3)C2=O)cc1Cl (stereo not shown) [Compound 13] | 0 | 0 | 0 | 0 | 0 | 0 | 20 | 70 | 0 | 10 | 0 | 80 | 20 | 90 | 0 | 20 | 80 | 100 | 0 | 0 |
| CC(C)c1ccn(C2OCN(c3cccc(C(F)(F)F)c3)C2=O)n1 (stereo not shown) [Compound 27] | 70 | 80 | 20 | 60 | 50 | 90 | 20 | 80 | 100 | 100 | 100 | 90 | 100 | 100 | 0 | 20 | 100 | 100 | 20 | 10 |
| CC(C)(C)c1nn(C2CCN(c3cccc(C(F)(F)F)c3)C2=O)cc1Cl (stereo not shown) [Compound 14] | 0 | 0 | 0 | 0 | 0 | 0 | 0 | 20 | 0 | 0 | 0 | 0 | 0 | 0 | 0 | 0 | 40 | 70 | 0 | 0 |
